Legend:
soybean [1] = test: Test C preemergence; format: in vivo, Glycine max; settings: for Plant response rating, Soybean: Preemergence; for Soybean plant response rating: preemergence
Procedure, shortened: (§1)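 Seeds in loam–sand blend received preemergence directed soil spray of test chemicals in non-phytotoxic solvent with surfactant; postemergence treatment was applied at one- to two-leaf stage (2–10 cm). After 10 days in greenhouse, injury rated visually versus untreated controls, 0 (no effect) to 100 (complete control).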

ducksalad = test: Test D flooded paddy test; format: in vivo, Heteranthera limosa; settings: 250 g ai/ha, applied to paddy water, visual rating after 13 to 14 days, scale 0 to 100 (0 no effect, 100 complete control)
Procedure, shortened: (§2)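 Plants grown to the 2-leaf stage; pots flooded to 3 cm above soil at treatment and held at that depth throughout. Test compounds applied directly to the paddy water. After 13 to 14 days in a greenhouse, response was rated visually versus controls on a 0 (no effect) to 100 (complete control) scale.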

blackgrass [2] = test: Test C postemergence; format: in vivo, Alopecurus myosuroides; settings: 10 days
Procedure, shortened: as §1

soybean [3] = test: Test C postemergence; format: in vivo, Glycine max; settings: 10 days
Procedure, shortened: as §1

oat, wild [4] = test: Test C postemergence; format: in vivo, Avena fatua; settings: 10 days
Procedure, shortened: as §1

green foxtail [5] = test: Test C postemergence; format: in vivo, Setaria viridis; settings: 10 days
Procedure, shortened: as §1

barnyardgrass [6] = test: Test C preemergence; format: in vivo, Echinochloa crusgalli; settings: for Plant response rating, Barnyardgrass: Preemergence; for Barnyardgrass plant response rating: preemergence
Procedure, shortened: as §1

kochia [7] = test: Test C postemergence; format: in vivo, Bassia scoparia; settings: 10 days
Procedure, shortened: as §1

oat, wild [8] = test: Test C preemergence; format: in vivo, Avena fatua; settings: for Plant response rating, Oat, Wild: Preemergence; for Oat, Wild plant response rating: preemergence
Procedure, shortened: as §1

kochia [9] = test: Test C preemergence; format: in vivo, Bassia scoparia; settings: for Plant response rating, Kochia: Preemergence; for Kochia plant response rating: preemergence
Procedure, shortened: as §1

green foxtail [10] = test: Test C preemergence; format: in vivo, Setaria viridis; settings: for Plant response rating, Foxtail, Green: Preemergence; for Foxtail, Green plant response rating: preemergence
Procedure, shortened: as §1

pigweed, palmer [11] = test: Test C postemergence; format: in vivo, Amaranthus palmeri; settings: 10 days
Procedure, shortened: as §1

galium = test: Test C postemergence; format: in vivo, Galium aparine; settings: 10 days
Procedure, shortened: as §1

rice = test: Test D flooded paddy test; format: in vivo, Oryza sativa; settings: 250 g ai/ha, applied to paddy water, visual rating after 13 to 14 days, scale 0 to 100 (0 no effect, 100 complete control)
Procedure, shortened: as §2

sedge, umbrella = test: Test D flooded paddy test; format: in vivo, Cyperus difformis; settings: 250 g ai/ha, applied to paddy water, visual rating after 13 to 14 days, scale 0 to 100 (0 no effect, 100 complete control)
Procedure, shortened: as §2

corn [12] = test: Test C postemergence; format: in vivo, Zea mays; settings: 10 days
Procedure, shortened: as §1

wheat [13] = test: Test C postemergence; format: in vivo, Triticum aestivum; settings: 10 days
Procedure, shortened: as §1

barnyardgrass [14] = test: Test D flooded paddy test; format: in vivo, Echinochloa crus-galli; settings: 250 g ai/ha, applied to paddy water, visual rating after 13 to 14 days, scale 0 to 100 (0 no effect, 100 complete control)
Procedure, shortened: as §2

blackgrass [15] = test: Test C preemergence; format: in vivo, Alopecurus myosuroides; settings: for Plant response rating, Blackgrass: Preemergence; for Blackgrass plant response rating: preemergence
Procedure, shortened: as §1

corn [16] = test: Test C preemergence; format: in vivo, Zea mays; settings: for Plant response rating, Corn: Preemergence; for Corn plant response rating: preemergence
Procedure, shortened: as §1

horseweed = test: Test C postemergence; format: in vivo, Erigeron canadensis; settings: 10 days
Procedure, shortened: as §1

ragweed [17] = test: Test C postemergence; format: in vivo, Ambrosia artemisiifolia; settings: 10 days
Procedure, shortened: as §1

pigweed, palmer [18] = test: Test C preemergence; format: in vivo, Amaranthus palmeri; settings: for Plant response rating, Pigweed, Palmer: Preemergence; for Pigweed, Palmer plant response rating: preemergence
Procedure, shortened: as §1

barnyardgrass [19] = test: Test C postemergence; format: in vivo, Echinochloa crusgalli; settings: 10 days
Procedure, shortened: as §1

ryegrass, Italian [20] = test: Test C postemergence; format: in vivo, Lolium multiflorum; settings: 10 days
Procedure, shortened: as §1

ragweed [21] = test: Test C preemergence; format: in vivo, Ambrosia artemisiifolia; settings: for Plant response rating, Ragweed: Preemergence; for Ragweed plant response rating: preemergence
Procedure, shortened: as §1

wheat [22] = test: Test C preemergence; format: in vivo, Triticum aestivum; settings: for Plant response rating, Wheat: Preemergence; for Wheat plant response rating: preemergence
Procedure, shortened: as §1

ryegrass, Italian [23] = test: Test C preemergence; format: in vivo, Lolium multiflorum; settings: for Plant response rating, Ryegrass, Italian: Preemergence; for Ryegrass, Italian plant response rating: preemergence
Procedure, shortened: as §1

[24] = 500 g ai/ha, visual rating after 10 days, 0 to 100 scale (0 no effect, 100 complete control)
[25] = Test C, 125 g ai/ha, 0 to 100 scale (0 no effect, 100 complete control)
[26] = 125 g ai/ha, postemergence, 0 to 100 scale, 0 no effect, 100 complete control
[27] = Postemergence, 500 g ai/ha, visual 0 to 100 scale (0 no effect, 100 complete control)
[28] = 500 g ai/ha, 0 to 100 scale (0 no effect, 100 complete control)
[29] = 125 g ai/ha, 0 to 100 scale, 0 no effect, 100 complete control
[30] = 500 g ai/ha, postemergence, 0 to 100 scale (0 no effect, 100 complete control)
[31] = Postemergence, 125 g ai/ha, 0 to 100 scale (0 no effect, 100 complete control)

## CC(C)c1ncn(-c2cc3c(c(C(=O)N4C[C@H](C)Oc5c(Cl)cccc54)c2)OCO3)n1 [Compound 258, [(2S)-8-chloro-2-methyl-2,3-dihydro-1,4-benzoxazin-4-yl]-[6-(3-isopropyl-1,2,4-triazol-1-yl)-1,3-benzodioxol-4-yl]methanone]
Soybean [1]; [24]
  Plant response rating, Soybean: 100
Soybean [1]; [25]
  Soybean plant response rating: 50
ducksalad
  Plant response rating, Ducksalad (Flood): 98
Blackgrass [2]; Alopecurus myosuroides, post-emergence, 240 h, 125 g ai/ha, postemergence, 0 to 100 scale (0 no effect, 100 complete control), read-out: Plant response rating, Blackgrass
  pest or weed control at 125 g/ha: 50%
Blackgrass [2]; Alopecurus myosuroides, post-emergence, 240 h, Postemergence, 500 g ai/ha, visual 0 to 100 scale (0 no effect, 100 complete control), read-out: Plant response rating, Blackgrass
  pest or weed control at 500 g/ha: 100%
Soybean [3]; [26]
  Plant response rating, Soybean: 100
Soybean [3]; [27]
  Plant response rating, Soybean: 100
oat, wild [4]; [26]
  Plant response rating, Oat, Wild: 30
oat, wild [4]; [27]
  Plant response rating, Oat, Wild: 90
Green foxtail [5]; [26]
  Plant response rating, Foxtail, Green: 50
Green foxtail [5]; [27]
  Plant response rating, Foxtail, Green: 90
Barnyardgrass [6]; [24]
  Plant response rating, Barnyardgrass: 100
Barnyardgrass [6]; [25]
  Barnyardgrass plant response rating: 80
Kochia [7]; [26]
  Plant response rating, Kochia: 70
Kochia [7]; [27]
  Plant response rating, Kochia: 100
oat, wild [8]; [24]
  Plant response rating, Oat, Wild: 90
oat, wild [8]; [25]
  Oat, Wild plant response rating: 40
Kochia [9]; [24]
  Plant response rating, Kochia: 100
Kochia [9]; [25]
  Kochia plant response rating: 90
Green foxtail [10]; [24]
  Plant response rating, Foxtail, Green: 100
Green foxtail [10]; [25]
  Foxtail, Green plant response rating: 100
pigweed, palmer [11]; [26]
  Plant response rating, Pigweed, Palmer: 100
pigweed, palmer [11]; [27]
  Plant response rating, Pigweed, Palmer: 100
galium; [26]
  Plant response rating, Galium: 100
galium; [27]
  Plant response rating, Galium: 100
rice
  Plant response rating, Rice (Flood): 10
sedge, umbrella
  Plant response rating, Sedge, Umbrella (Flood): 98
Corn [12]; Zea mays, post-emergence, 240 h, 125 g ai/ha, postemergence, 0 to 100 scale (0 no effect, 100 complete control)
  Corn plant response rating (crop injury, 0 = no effect, 100 = complete kill) at 125 g/ha: 70%
Corn [12]; Zea mays, post-emergence, 240 h, Postemergence, 500 g ai/ha, visual 0 to 100 scale (0 no effect, 100 complete control)
  Corn plant response rating (crop injury, 0 = no effect, 100 = complete kill) at 500 g/ha: 80%
Wheat [13]; [26]
  Plant response rating, Wheat: 20
Wheat [13]; [27]
  Plant response rating, Wheat: 50
Barnyardgrass [14]
  Plant response rating, Barnyardgrass (Flood): 35
Blackgrass [15]; [24]
  Plant response rating, Blackgrass: 60
Blackgrass [15]; [25]
  Blackgrass plant response rating: 40
Corn [16]; [24]
  Plant response rating, Corn: 20
Corn [16]; [25]
  Corn plant response rating: 10
horseweed; [26]
  Plant response rating, Horseweed: 70
horseweed; [27]
  Plant response rating, Horseweed: 90
Ragweed [17]; [26]
  Plant response rating, Ragweed: 70
Ragweed [17]; [27]
  Plant response rating, Ragweed: 90
pigweed, palmer [18]; [24]
  Plant response rating, Pigweed, Palmer: 100
pigweed, palmer [18]; [25]
  Pigweed, Palmer plant response rating: 100
Barnyardgrass [19]; [26]
  Plant response rating, Barnyardgrass: 40
Barnyardgrass [19]; [27]
  Plant response rating, Barnyardgrass: 90
ryegrass, Italian [20]; [26]
  Plant response rating, Ryegrass, Italian: 50
ryegrass, Italian [20]; [27]
  Plant response rating, Ryegrass, Italian: 80
Ragweed [21]; [24]
  Plant response rating, Ragweed: 50
Ragweed [21]; [25]
  Ragweed plant response rating: 40
Wheat [22]; [24]
  Plant response rating, Wheat: 60
Wheat [22]; [25]
  Wheat plant response rating: 50
ryegrass, Italian [23]; [24]
  Plant response rating, Ryegrass, Italian: 100
ryegrass, Italian [23]; [25]
  Ryegrass, Italian plant response rating: 90

## Cc1ccc(-n2cnc(C#N)n2)cc1C(=O)N1C[C@H](C)Oc2c(Cl)cccc21 [Compound 363]
Soybean [1]; [28]
  Soybean plant response rating: 0
Soybean [1]; [29]
  Plant response rating, Soybean: 20
ducksalad
  Plant response rating, Ducksalad (Flood): 0
Blackgrass [2]; [30]
  Plant response rating, Blackgrass: 60
Blackgrass [2]; [31]
  Plant response rating, Blackgrass: 30
Soybean [3]; [30]
  Plant response rating, Soybean: 100
Soybean [3]; [31]
  Plant response rating, Soybean: 100
oat, wild [4]; [30]
  Plant response rating, Oat, Wild: 20
oat, wild [4]; [31]
  Plant response rating, Oat, Wild: 0
Green foxtail [5]; [30]
  Plant response rating, Foxtail, Green: 50
Green foxtail [5]; [31]
  Plant response rating, Foxtail, Green: 30
Barnyardgrass [6]; [28]
  Barnyardgrass plant response rating: 60
Barnyardgrass [6]; [29]
  Plant response rating, Barnyardgrass: 40
Kochia [7]; [30]
  Plant response rating, Kochia: 80
Kochia [7]; [31]
  Plant response rating, Kochia: 40
oat, wild [8]; [28]
  Oat, Wild plant response rating: 0
oat, wild [8]; [29]
  Plant response rating, Oat, Wild: 0
Kochia [9]; [28]
  Kochia plant response rating: 0
Kochia [9]; [29]
  Plant response rating, Kochia: 0
Green foxtail [10]; [28]
  Foxtail, Green plant response rating: 100
Green foxtail [10]; [29]
  Plant response rating, Foxtail, Green: 100
pigweed, palmer [11]; [30]
  Plant response rating, Pigweed, Palmer: 90
pigweed, palmer [11]; [31]
  Plant response rating, Pigweed, Palmer: 70
galium; [30]
  Plant response rating, Galium: 100
galium; [31]
  Plant response rating, Galium: 100
rice
  Plant response rating, Rice (Flood): 0
sedge, umbrella
  Plant response rating, Sedge, Umbrella (Flood): 0
Corn [12]; [30]
  Plant response rating, Corn: 10
Corn [12]; [31]
  Plant response rating, Corn: 10
Wheat [13]; [30]
  Plant response rating, Wheat: 20
Wheat [13]; [31]
  Plant response rating, Wheat: 20
Barnyardgrass [14]
  Plant response rating, Barnyardgrass (Flood): 0
Blackgrass [15]; [28]
  Blackgrass plant response rating: 30
Blackgrass [15]; [29]
  Plant response rating, Blackgrass: 0
Corn [16]; [28]
  Corn plant response rating: 0
Corn [16]; [29]
  Plant response rating, Corn: 0
horseweed; [30]
  Plant response rating, Horseweed: 0
horseweed; [31]
  Plant response rating, Horseweed: 0
Ragweed [17]; [30]
  Plant response rating, Ragweed: 50
Ragweed [17]; [31]
  Plant response rating, Ragweed: 0
pigweed, palmer [18]; [28]
  Pigweed, Palmer plant response rating: 100
pigweed, palmer [18]; [29]
  Plant response rating, Pigweed, Palmer: 80
Barnyardgrass [19]; [30]
  Plant response rating, Barnyardgrass: 50
Barnyardgrass [19]; [31]
  Plant response rating, Barnyardgrass: 20
ryegrass, Italian [20]; [30]
  Plant response rating, Ryegrass, Italian: 50
ryegrass, Italian [20]; [31]
  Plant response rating, Ryegrass, Italian: 40
Ragweed [21]; [28]
  Ragweed plant response rating: 80
Ragweed [21]; [29]
  Plant response rating, Ragweed: 20
Wheat [22]; [28]
  Wheat plant response rating: 0
Wheat [22]; [29]
  Plant response rating, Wheat: 0
ryegrass, Italian [23]; [28]
  Ryegrass, Italian plant response rating: 70
ryegrass, Italian [23]; [29]
  Plant response rating, Ryegrass, Italian: 30

Reference: patent publication US20260262643A1, “HERBICIDAL BENZOXAZINES” (FMC CORPORATION, priority 2022, published 2026)
